Laboratory results published in US6737383B1, “Herbicidal oxadiazolidines” (priority 1999, dated 2004).

Tests used:
soybean = assay: Test B pre/postemergence soybean; format: in vivo, Glycine max
In short: (§1)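 Response is a visual 0-to-10 score relative to untreated plants, where 0 means no effect and 10 means complete control, taken twelve to sixteen days after application. Treatments went onto soil at planting and onto foliage of 1- to 4-leaf plants, using a surfactant-containing non-phytotoxic solvent.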

velvetleaf = assay: Test B pre/postemergence velvetleaf; format: in vivo, Abutilon theophrasti
In short: as §1

smallflower flatsedge = assay: Test B flood test smallflower flatsedge; format: in vivo, Cyperus difformis
In short: (§2)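 Flood test on plants grown to the 2-leaf stage; treated plants kept in greenhouse twelve to sixteen days, then visually rated against controls on a 0 (no effect) to 10 (complete control) scale.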

duck salad = assay: Test B flood test duck salad; format: in vivo, Heteranthera limosa
In short: as §2

[1] = Postemergence, Rate 62 g/ha, scale 0 to 10, 0 is no effect, 10 is complete control
[2] = Postemergence, Rate 125 g/ha, scale of 0 to 10 where 0 is no effect and 10 is complete control
[3] = Postemergence, Rate 250 g/ha, scale of 0 to 10, 0 is no effect, 10 is complete control
[4] = Preemergence, Rate 62 g/ha, scale 0 to 10 (0 no effect, 10 complete control)
[5] = Preemergence, Rate 125 g/ha, scale of 0 to 10 where 0 is no effect and 10 is complete control
[6] = Preemergence, Rate 250 g/ha, scale 0 to 10 (0 no effect, 10 complete control)
[7] = Preemergence, Rate 500 g/ha, scale of 0 to 10 where 0 is no effect and 10 is complete control
[8] = Rate 62 g/ha, flood test species, Pre-emergence, visual evaluation after twelve to sixteen days
[9] = Rate 125 g/ha, under heading Pre-emergence, flood test species, visual evaluation after twelve to sixteen days
[10] = Rate 250 g/ha, Pre-emergence (flood test species), scale 0 to 10, 0 is no effect, 10 is complete control
[11] = Rate 500 g/ha, Pre-emergence section of Table B, 0 to 10 scale (0 no effect, 10 complete control)
[12] = Postemergence, Rate 250 g/ha, scale 0 to 10
[13] = Postemergence, Rate 500 g/ha, scale of 0 to 10 where 0 is no effect and 10 is complete control
[14] = Preemergence, Rate 250 g/ha, scale 0 to 10, 0 is no effect, 10 is complete control
[15] = Preemergence, Rate 500 g/ha, scale 0 to 10, 0 is no effect, 10 is complete control
[16] = Rate 125 g/ha, Postemergence, scale 0 to 10, 0 is no effect, 10 is complete control
[17] = Postemergence block (flood test species), Rate 250 g/ha, scale 0 to 10
[18] = Postemergence section (flood test species), Rate 500 g/ha, scale of 0 to 10 where 0 is no effect and 10 is complete control
[19] = Rate 125 g/ha, Postemergence section (flood test species), scale 0 to 10, 0 is no effect, 10 is complete control
[20] = Rate 62 g/ha, Postemergence (flood test species), scale of 0 to 10 where 0 is no effect and 10 is complete control
[21] = Postemergence, Rate 250 g/ha, scale 0 to 10, 0 is no effect, 10 is complete control
[22] = Rate 62 g/ha, Postemergence, scale of 0 to 10 where 0 is no effect and 10 is complete control
[23] = flood test species, listed under Postemergence, Rate 250 g/ha, scale 0 to 10, 0 is no effect, 10 is complete control

CCOC(Cn1c(=O)on(C(=O)N(c2ccc(Cl)cc2)C(C)C)c1=O)OCC [Compound 633]
2: Plant response rating, Soybean (soybean; [1]) | Plant response rating, Soybean (soybean; [2]) | Soybean plant response rating (soybean; [3])
0: Soybean plant response rating (soybean; [4]) | Soybean plant response rating (soybean; [5]) | Plant response rating, Soybean (soybean; [6]) | Plant response rating, Soybean (soybean; [7]) | Plant response rating, Velvetleaf (velvetleaf; [1]) | Plant response rating, Velvetleaf (velvetleaf; [2]) | Velvetleaf plant response rating (velvetleaf; [3]) | Velvetleaf plant response rating (velvetleaf; [4]) | Velvetleaf plant response rating (velvetleaf; [5]) | Plant response rating, Velvetleaf (velvetleaf; [6]) | Plant response rating, Velvetleaf (velvetleaf; [7]) | Plant response rating, S. Flatsedge (0 to 10 scale, 0 is no effect, 10 is complete control) (smallflower flatsedge; [8]) | S. Flatsedge plant response rating (0 to 10 scale, 0 is no effect, 10 is complete control) (smallflower flatsedge; [9]) | S. Flatsedge plant response rating (smallflower flatsedge; [10]) | S. Flatsedge plant response rating (smallflower flatsedge; [11]) | Plant response rating, Ducksalad (0 to 10 scale, 0 is no effect, 10 is complete control) (duck salad; [8]) | Ducksalad plant response rating (0 to 10 scale, 0 is no effect, 10 is complete control) (duck salad; [9]) | Ducksalad plant response rating (duck salad; [10]) | Ducksalad plant response rating (duck salad; [11])

CCN(C(=O)n1oc(=O)n(C2CCCCCC2)c1=O)C1CCCCC1 [Compound 429]
0: Plant response rating, Soybean (soybean; [4]) | Plant response rating, Soybean (soybean; [5]) | Soybean plant response rating (soybean; [14]) | Soybean plant response rating (soybean; [15]) | Plant response rating, Velvetleaf (velvetleaf; [4]) | Plant response rating, Velvetleaf (velvetleaf; [5]) | Velvetleaf plant response rating (velvetleaf; [14]) | Velvetleaf plant response rating (velvetleaf; [15]) | Velvetleaf plant response rating (velvetleaf; [16]) | S. Flatsedge plant response rating (smallflower flatsedge; [19]) | Ducksalad plant response rating (duck salad; [20])
3: Soybean plant response rating (soybean; [13]) | S. Flatsedge plant response rating (smallflower flatsedge; [17])
9: S. Flatsedge plant response rating (smallflower flatsedge; [18])
2: Soybean plant response rating (soybean; [12]) | Soybean plant response rating (soybean; [16]) | Velvetleaf plant response rating (velvetleaf; [12]) | Velvetleaf plant response rating (velvetleaf; [13]) | Ducksalad plant response rating (duck salad; [19])
6: Ducksalad plant response rating (duck salad; [17]) | Ducksalad plant response rating (duck salad; [18])

CC(C)N(C(=O)n1oc(=O)n(CCC(F)(F)F)c1=O)c1ccc(F)cc1 [Compound 397]
6: Soybean plant response rating (soybean; [13]) | Velvetleaf plant response rating (velvetleaf; [14]) | Velvetleaf plant response rating (velvetleaf; [15])
3: Soybean plant response rating (soybean; [22])
2: Plant response rating, Velvetleaf (velvetleaf; [5])
0: Plant response rating, Soybean (soybean; [4]) | Plant response rating, Soybean (soybean; [5]) | Soybean plant response rating (soybean; [14]) | Soybean plant response rating (soybean; [15]) | Plant response rating, Velvetleaf (velvetleaf; [21]) | Velvetleaf plant response rating (velvetleaf; [13]) | Plant response rating, Velvetleaf (velvetleaf; [4]) | Velvetleaf plant response rating (velvetleaf; [22]) | S. Flatsedge plant response rating (smallflower flatsedge; [18]) | S. Flatsedge plant response rating (smallflower flatsedge; [20]) | Plant response rating, S. Flatsedge (smallflower flatsedge; [23]) | Plant response rating, Ducksalad (duck salad; Postemergence (flood test), Rate 125 g/ha, scale 0 to 10, 0 is no effect, 10 is complete control) | Ducksalad plant response rating (duck salad; [18]) | Ducksalad plant response rating (duck salad; [20]) | Plant response rating, Ducksalad (duck salad; [23])
5: Plant response rating, Soybean (soybean; [21])
